Data reported in US10053455B2, “Diazaspiroalkaneone-substituted oxazole derivatives as spleen tyrosine kinase inhibitors” (AB SCIENCE, priority 2014, dated 2018).
pIC50: −log10 of the molar value.

Legend:
[1] = system: Salmonella typhimurium strain TA100
Experimental: Mutagenic activity of test compounds and their metabolites (produced by rat liver S9 fraction) was evaluated in the Salmonella typhimurium strains TA100 and TA98 according to the Ames assay (Toxicology in vitro, (2001), 15: 105-114). […] The results are expressed as a mutagenicity ratio in comparison to solvent controls.
The results are expressed as a ratio of the number of colonies over the number of colonies in the negative control (DMSO).

[2] = system: murine model of arthritis; assay: K/BxN serum mouse model of rheumatoid arthritis: ankle thickening and arthritis score; type: in vivo, C57Bl/6 mice
Experimental: K/B×N serum pools were prepared from arthritic mice at 8 weeks of age. The mice were pre-treated with SYK inhibitors by two per os administration for two days before induction of arthritis. Arthritis was induced in the C57Bl/6 mice (8 weeks of age) by intraperitoneal injection (7.5 μl serum per g weight) at days 0 and 2.
The treatment with SYK inhibitors was continued for 13 days. The control mice were injected with solvent before the induction of arthritis and during the course of the disease. The compounds were dissolved in a solution containing 10% of Tween 80 and 10% 1-2 propandiol. It was prepared before administration.
Ankle thickening measure, being defined as the difference in ankle thickness from the day 0, was measured using a precision calliper. Arthritis/clinical score was defined by sum of scores of each lim (0 no disease; 1 mild swelling of paw or of just of few digits; 2 clear joint inflammation; 3 severe joint inflammation) maximum score=12.
K/B×N was a murine model of spontaneous rheumatoid arthritis that mimics many of the clinical and histological features of human disease with synovitis predominantly in the distal small joints. Arthritis was induced by intraperitoneal injection of arthritis serum of K/B×N mice at days 0 and 2 as described in protocol assays above. Compound 001 was tested at 15 and 50 mg/kg/day b.i.d. and compared with Masitinib at 50 mg/kg/day b.i.d., an AB Science drug candidate for treating rheumatoid arthritis (Arthritis Res Ther., (2009), 11(3):R95). Ankle thickening and arthritis score were used to monitor the in vivo activity of the compounds.

IL6 = assay: FcεRI and Kit-induced IL6 cytokine release in BMMCs; type: cell-based, C57BL/6J mice
Experimental: Murine bone marrow mast cells (BMMCs) are obtained by flushing bone marrow cells from the femurs of C57BL/6J mice, and then cultured for 3-4 weeks in RPMI containing mouse recombinant IL-3 (30 ng/ml). Cells were sensitized overnight in IL3-depleted culture medium with 0.1-0.2 μg/ml anti-DNP-IgE (Sigma-Aldrich D8406). Cells were preincubated with inhibitors for 30 min, and then stimulated with 10 ng/ml antigen (Ag) and/or Stem Cell Factor (SCF) (30 ng/ml). The cells were incubated for 6 h. The supernatants were harvested, and the cytokine content measured using CISBIO IL6 and TNFα HTRF assay (cat#63ADKEBU043 and 6FMTNPEB respectively).

hERG = hERG (Homo sapiens (Human), UniProt Q12809); assay: Predictor hERG Fluorescence Polarization binding assay; details: 100% = E-4031
Experimental: The activity of the test compounds on the hERG potassium channel was evaluated using a binding assay provided by Invitrogen (Predictor hERG Fluorescence Polarization assay Kit PV5365). The test was performed at a single concentration of 3 μM of drug. […] The data are expressed as a percentage of hERG inhibition, 100% corresponding to the inhibition obtained with E-4031 and 0% with the solvent DMSO (negative control).

Jak1 = Jak1 (Homo sapiens (Human), UniProt P23458); assay: HTRF kinase assay, Jak1; type: biochemical; details: enzymatic determination
Experimental: Most of the kinases tested in this study were cloned, expressed and purified in the facilities of the inventors. They were expressed either as N-terminus hexahistidine-, hexahistidine-asparagine- or GST-tagged enzymes in a baculovirus or in a Colibacille expression system. Remaining enzymes (JAKs) were purchased from Millipore or Proqinase. For each enzyme, steady state kinetic parameters were determined and validated with known inhibitors.
The analysis of the effect of compounds on kinase activity was assessed with the HTRF® KinEASE assay (Cisbio International), an immuno-assay based on the quantification of the level of phosphorylation of a biotinylated peptide substrate using anti-phospho-specific antibody labeled with Europium (Eu^3+) cryptate. This assay comprises two steps: —an enzymatic step, during which the peptide substrate, the kinase, ATP, Mg^2+ and/or Mn^2+ are incubated with varying concentration of drug (from 0 to 10 μM); —a detection step, at the end of the reaction (stopped by addition of EDTA which chelates Mg^2+), the antibody anti-phospho peptide-Eu^3+ (emission 620 nm) and streptavidin XL-665 (emission 665 nm) are added to the reaction mix. […] Results are expressed in delta fluorescence (DF) unit defined as follow DF %=[(ratio−ratio blank)/(ratio blank)]*100, where ratio=(665 nm/620 nm)*10^4. […]

murine model of asthma = assay: Mouse model of asthma: airway responsiveness (FlexiVent); type: in vivo, Balb/c male mice; details: ovalbumin-sensitized mice, PO twice daily
Experimental: Balb/c male mice, 8 weeks old, were purchased from Janvier (Le Genest-Saint-Isle; FRANCE) and bred in the animal facility for 4 weeks. Drugs were dissolved in drinking solvent (80% water; 10% Tween 80 and 10% isopropanediol). It was aliquoted and stored at −20° C. Each mouse received drugs twice a day. The weight of animals was calculated before and after treatment.
Mice, 9 weeks of age, were sensitized with 50 μg of ovalbumin (Sigma-Aldrich, Germany) adsorbed to 2 mg Al(OH)3 (Prolabo, France) and diluted in physiological saline (0.9% NaCl). Ovalbumin was injected intraperitoneally on days 1 and 7. Sensitization was followed by intranasal challenges with 10 μg of ovalbumin diluted in 0.9% NaCl, each day from day 18 to day 21. On days 17 to 21, animals treated with drugs received 100 μl of a solution at 15 mg/ml, at 7.5 mg/ml or at 3.75 mg/ml administered per os twice a day during 5 days. These treatments corresponded to concentration of 60 mg/mouse kg, 30 mg/mouse kg and 15 mg/mouse kg respectively.
The airway responsiveness was measured using the invasiveness FlexiVent® (SCIREQ) technique. […] The baseline values were measured after saline solution nebulization and airway hyperresponsiveness evaluated after nebulization of a 0.26M metacholine solution (50 mg/ml).

Jak1, sequence (P23458 whole entry): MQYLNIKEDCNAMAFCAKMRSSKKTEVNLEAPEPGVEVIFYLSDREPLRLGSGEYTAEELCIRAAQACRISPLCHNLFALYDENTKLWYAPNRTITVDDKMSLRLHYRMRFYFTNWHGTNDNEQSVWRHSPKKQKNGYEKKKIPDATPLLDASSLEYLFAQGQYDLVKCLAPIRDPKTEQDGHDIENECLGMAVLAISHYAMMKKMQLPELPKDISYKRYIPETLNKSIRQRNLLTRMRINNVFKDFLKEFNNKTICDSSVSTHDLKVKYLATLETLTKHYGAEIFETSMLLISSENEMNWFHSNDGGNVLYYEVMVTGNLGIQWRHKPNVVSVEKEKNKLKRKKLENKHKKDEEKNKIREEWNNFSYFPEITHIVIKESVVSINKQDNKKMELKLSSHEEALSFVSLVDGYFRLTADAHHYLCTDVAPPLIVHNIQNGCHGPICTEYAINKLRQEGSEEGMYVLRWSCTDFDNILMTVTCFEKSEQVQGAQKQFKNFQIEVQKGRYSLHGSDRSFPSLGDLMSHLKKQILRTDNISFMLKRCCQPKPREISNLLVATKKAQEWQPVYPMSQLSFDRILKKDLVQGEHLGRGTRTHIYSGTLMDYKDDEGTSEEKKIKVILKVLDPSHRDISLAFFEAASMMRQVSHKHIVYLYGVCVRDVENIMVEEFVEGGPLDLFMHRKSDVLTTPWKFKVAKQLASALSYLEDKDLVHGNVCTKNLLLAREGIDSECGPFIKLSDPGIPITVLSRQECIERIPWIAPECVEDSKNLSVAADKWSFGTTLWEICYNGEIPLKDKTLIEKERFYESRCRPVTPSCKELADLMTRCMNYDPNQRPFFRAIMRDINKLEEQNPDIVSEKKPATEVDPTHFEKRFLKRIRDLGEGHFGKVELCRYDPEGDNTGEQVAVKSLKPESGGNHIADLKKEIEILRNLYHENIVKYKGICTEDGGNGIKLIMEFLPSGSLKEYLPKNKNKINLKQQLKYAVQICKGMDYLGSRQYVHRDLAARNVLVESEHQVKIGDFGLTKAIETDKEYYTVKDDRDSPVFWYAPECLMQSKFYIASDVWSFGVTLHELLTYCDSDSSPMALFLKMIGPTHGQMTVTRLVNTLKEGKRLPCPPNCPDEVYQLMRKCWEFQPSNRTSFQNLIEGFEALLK
hERG, sequence (Q12809 whole entry): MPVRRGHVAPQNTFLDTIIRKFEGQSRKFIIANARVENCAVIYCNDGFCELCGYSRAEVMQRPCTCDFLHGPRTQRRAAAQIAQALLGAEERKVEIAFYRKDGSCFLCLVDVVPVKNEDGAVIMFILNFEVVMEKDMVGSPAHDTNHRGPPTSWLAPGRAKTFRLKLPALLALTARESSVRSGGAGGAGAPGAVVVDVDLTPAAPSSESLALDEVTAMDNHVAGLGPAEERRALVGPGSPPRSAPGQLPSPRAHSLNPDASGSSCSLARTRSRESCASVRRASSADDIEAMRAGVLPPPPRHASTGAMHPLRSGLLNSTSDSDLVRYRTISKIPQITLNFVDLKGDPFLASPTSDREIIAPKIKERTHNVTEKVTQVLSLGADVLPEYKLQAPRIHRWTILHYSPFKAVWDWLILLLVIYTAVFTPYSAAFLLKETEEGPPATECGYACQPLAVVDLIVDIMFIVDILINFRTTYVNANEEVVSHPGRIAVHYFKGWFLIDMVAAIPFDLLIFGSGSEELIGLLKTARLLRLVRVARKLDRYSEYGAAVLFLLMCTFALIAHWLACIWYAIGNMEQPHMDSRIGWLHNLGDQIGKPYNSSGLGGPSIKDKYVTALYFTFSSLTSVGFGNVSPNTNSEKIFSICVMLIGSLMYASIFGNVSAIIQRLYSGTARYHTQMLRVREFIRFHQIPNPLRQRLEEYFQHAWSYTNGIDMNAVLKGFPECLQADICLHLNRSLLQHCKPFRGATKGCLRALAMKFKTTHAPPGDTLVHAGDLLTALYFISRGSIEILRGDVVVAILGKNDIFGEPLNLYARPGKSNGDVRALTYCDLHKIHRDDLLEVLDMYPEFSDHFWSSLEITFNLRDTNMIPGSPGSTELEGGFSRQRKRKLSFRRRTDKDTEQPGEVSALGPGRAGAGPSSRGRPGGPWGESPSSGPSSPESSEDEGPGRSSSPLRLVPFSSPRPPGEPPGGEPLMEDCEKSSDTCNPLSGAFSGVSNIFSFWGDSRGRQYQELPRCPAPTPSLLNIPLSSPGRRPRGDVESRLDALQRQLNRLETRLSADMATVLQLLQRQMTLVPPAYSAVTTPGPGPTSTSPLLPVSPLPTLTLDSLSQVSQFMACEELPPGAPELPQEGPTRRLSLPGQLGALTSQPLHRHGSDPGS

Q: With `Cc1ccnc(Nc2cccc(-c3cnc(N4CCNC(=O)C45CC5)o3)c2)n1` [Compound 001, 4-{5-[3-(4-Methyl-pyrimidin-2-ylamino)-phenyl]-oxazol-2-yl}-4,7-diaza-spiro[2.5]octan-8-one] as the compound, how does the mutagenic activity [1] read?
A: did not show any mutagenic activity

Q: And the “Ankle Thickening Score” value ([2]; 15 mg/kg b.i.d.)?
A: −17%

Q: What about the “Arthritis Score” value ([2]; 15 mg/kg b.i.d.) of the same compound?
A: −23%

Q: What about the “Ankle Thickening Score” value ([2]; 50 mg/kg b.i.d.) of the same compound?
A: −52% P < 0.005

Q: What about the “Arthritis Score” value ([2]; 50 mg/kg b.i.d.) of the same compound?
A: −68% P < 0.005

Q: What about the “reduction of ankle thickening” value ([2]; 2×50 mg/kg/day) of the same compound?
A: 52%

Q: What about the “reduction of arthritis score” value ([2]; 2×50 mg/kg/day) of the same compound?
A: 68%

Q: What about the “IL6 Cytokine Release (% relative to control Ag + SCF)” value (IL6; Ag + SCF + 0.01 μM of compound) of the same compound?
A: 89%

Q: What about the “IL6 Cytokine Release (Relative Fluorescence Units)” value (IL6; Ag + SCF + 0.01 μM of compound) of the same compound?
A: 756.5 Relative Fluorescence Units

Q: What about the “IL6 Cytokine Release (% relative to control Ag + SCF)” value (IL6; Ag + SCF + 0.1 μM of compound) of the same compound?
A: 29%

Q: What about the “IL6 Cytokine Release (Relative Fluorescence Units)” value (IL6; Ag + SCF + 0.1 μM of compound) of the same compound?
A: 249 Relative Fluorescence Units

Q: What about the “IL6 Cytokine Release (% relative to control Ag + SCF)” value (IL6; Ag + SCF + 1 μM of compound) of the same compound?
A: 6%

Q: And the “IL6 Cytokine Release (Relative Fluorescence Units)” value (IL6; Ag + SCF + 1 μM of compound)?
A: 54 Relative Fluorescence Units

Q: What about the pIC50 (IL6; Mus musculus, BMMC, Ag + SCF stimulated BMMCs, read-out: IL-6 release IC50) of the same compound?
A: ~7.30

Q: What about the inhibition at 3 µM (hERG) of the same compound?
A: 0%

Q: And the pIC50 (Jak1)?
A: 5.47

Q: And the bronchial hyper-responsiveness (murine model of asthma)?
A: reduced bronchial hyper-responsiveness in a dose-dependent manner
